From article PMC9367672, “In vitro differences in toddalolactone metabolism in various species and its effect on cytochrome P450 expression” (Pharmaceutical Biology, 2022)
Like-named read-outs stand apart in the source and are kept apart here.

Legend:
[1] = design: method as in Zhou et al. ([2021]); settings: mouse blood; intravenous administration; ref Zhou et al. ([2021]); cited from earlier work
other rhCYP isoforms = assay: Reaction phenotyping with the other recombinant human CYP isoforms; assay type: in vitro ADME; settings: other rhCYP isoforms (of thirteen), 15 nM, 37 °C, 60 min
Protocol: (§1) The CYP reaction system (200 μL) consisted of 0.1 M potassium phosphate buffer (pH 7.4), an NADPH-generating system (1 mM NADPH, 10 mM G-6-P, 1 unit/mL G-6-PD, 4 mM MgCl2), and liver microsomes or recombinant human microsomes (supersomes). Each of the in vitro enzymatic assays using liver microsomes was linear with respect to incubation time and amount of protein. After a pre-incubation at 37 °C for 3 min, the reactions were initiated by adding NADP^+. After incubating for 60 min, the reactions were quenched by adding 200 μL of ice-cold acetonitrile. Samples were centrifuged at 18,000 g for 15 min at 4 °C and 10 μL of supernatant was analyzed using an HPLC system. NADPH or CYP enzyme sources were not used in the control group to ensure that the metabolic reactions were CYP- and NADPH-dependent. All incubation assays were completed in triplicate. The data are presented as mean ± standard deviation (SD).
(§2) Thirteen cDNA-expressed human CYP isoforms (CYP1A1, CYP1A2, CYP2A6, CYP2B6, CYP2C8, CYP3A4, CYP2C19, CYP3A5, CYP1B1, CYP2C9, CYP2D6, CYP2E1 and CYP4F2) were used to identify the isoform(s) involved in the biotransformation of toddalolactone. Toddalolactone (10 μM) was incubated with each recombinant CYP (15 nM) for 60 min at 37 °C and metabolites were identified by HPLC.

[2] = Pharmacokinetics study in rats after intravenous administration; assay type: in vivo; settings: male, Sprague-Dawley, rat, intravenous 10 mg/kg, plasma
Protocol: Six male Sprague–Dawley rats weighing 200 ± 10 g were obtained from the Laboratory Animal Center of Jinzhou Medical University. Approval of the study protocols was obtained from the Institutional Animal Ethics Committee before the commencement of the studies. Toddalolactone was administered intravenously into the tail vein at a dose of 10 mg/kg, and 0.5 mL of blood was collected through orbital venous plexus at 0, 0.25, 0.5, 0.75, 1, 2, 4, 6 and 8 h after toddalolactone administration and centrifuged at 2000 g for 5 min at 4 °C to obtain the plasma samples. The plasma (0.1 mL) was mixed with 200 μL acetonitrile, the mixture was vortexed for 30 s and then centrifuged at 20,000 g for 20 min and the supernatant was collected and analyzed by HPLC.
After intravenous administration of toddalolactone, blood samples were collected and the concentration of toddalolactone in plasma was determined. The mean plasma concentrations of toddalolactone versus time profiles are depicted in Figure 13. The pharmacokinetic (PK) parameters such as AUC0–t, t1/2, Tmax and Cmax were calculated by a noncompartmental method using the DAS 3.1 software package (Jiangxi University of Traditional Chinese Medicine, Nanchang, China).

[3] = Metabolic stability assessment in mini pig liver microsomes; assay type: in vitro ADME; settings: pH 7.4, PLMs, toddalolactone 20 μM, 0-90 min
Protocol: as §1, with “NADPH or CYP enzyme sources were not used in the control group to ensure that the metabolic reactions were CYP- and NADPH-dependent. All incubation assays were completed in triplicate. The data are presented as mean ± standard deviation (SD).” left out
In the UGT reaction system, liver microsomes were incubated in 200 μL of the reaction system containing 4 mM UDPGA, 5 mM MgCl2, 20 µg/mL alamethicin, and 50 mM Tris-HCl buffer (pH 7.4). […] After centrifugation at 18,000 g for 15 min, 10 μL of the supernatant was analyzed by HPLC.
Toddalolactone (20 μM) was incubated with different liver microsomes, including HLMs, DLMs, PLMs, MLMs, RAMs, RLMs or MIMs in oxidative metabolism and glucuronidation reaction systems. […] The mixtures were centrifuged at 18,000 g for 15 min at 4 °C and then 10 μL of the supernatant was analyzed by HPLC. […]
The peak areas of toddalolactone and its metabolites were detected using a HPLC system (Shimadzu, Kyoto, Japan). […]

CYP3A5 = CYP3A5 (Homo sapiens, UniProt P20815); assay: Reaction phenotyping with recombinant human CYP3A5; assay type: in vitro ADME; design: purchased Corning Life Sciences (Corning, MA); host or cells: Saccharomyces cerevisiae; settings: CYP3A5 15 nM, 37 °C, 60 min; P4 main metabolite
CYP3A5, sequence (P20815 whole entry): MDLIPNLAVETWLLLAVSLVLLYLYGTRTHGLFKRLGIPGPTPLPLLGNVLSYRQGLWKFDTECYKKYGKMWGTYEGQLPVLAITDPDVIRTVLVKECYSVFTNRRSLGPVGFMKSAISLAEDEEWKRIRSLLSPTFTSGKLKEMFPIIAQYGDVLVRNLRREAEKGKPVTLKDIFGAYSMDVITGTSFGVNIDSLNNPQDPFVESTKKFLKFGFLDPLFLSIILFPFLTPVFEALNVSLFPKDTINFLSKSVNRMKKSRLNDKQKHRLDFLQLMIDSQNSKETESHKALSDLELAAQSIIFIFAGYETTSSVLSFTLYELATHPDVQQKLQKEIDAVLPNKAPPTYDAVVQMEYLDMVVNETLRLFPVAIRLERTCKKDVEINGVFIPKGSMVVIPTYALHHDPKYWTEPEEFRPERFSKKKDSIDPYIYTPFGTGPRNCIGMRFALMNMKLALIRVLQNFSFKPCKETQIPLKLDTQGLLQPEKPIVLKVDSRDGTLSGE
Protocol: as §1, §2

COc1cc2oc(=O)ccc2c(OC)c1C[C@@H](O)C(C)(C)O [toddalolactone]
t1/2 [1]: 0.8 h | catalysis of toddalolactone metabolism by rhCYP isoform (other rhCYP isoforms): very limited or even no catalytic activity | Tmax [2]: 0.25 h | AUC(0-t) ([2]; 0–8 h): 460 ng·h/mL | Cmax ([2]; mean of six): 420 ng/mL | half-life ([2]; read-out: elimination t1/2 (converted)): 1.05 h | half-life at 20 μM ([3]; CYP incubation system, read-out: half-life value (T1/2)): 5.12 ± 0.467 h | half-life at 20 μM ([3]; UGT incubation system, read-out: T1/2 value): 1.42 ± 0.0717 h | catalysis of toddalolactone metabolism by rhCYP isoform (CYP3A5): predominantly catalyzed
